US10106519B2, “3-phenyl-7-hydroxy-isocoumarins as macrophage migration inhibitory factor (MIF) inhibitors” (The Provost, Fellows, Foundation Scholars, & the Other …, priority 2014, dated 2018)
“Also recorded” adds a separate entry of the source.

Columns and labels:
[1] = system: LPS induced TNF-α production; experiment: Inhibition of LPS induced TNF-α production in RAW 264.7 macrophage cells (ELISA); format: cell-based, mouse
Experimental: RAW 264.7 macrophage cells were plated at 1×10^5/ml in 450 μl of medium in a 48 well plate. 16 hours later cells were treated with ISO-1 or Tautomerase Inhibitors at a final concentration of 10, 50 or 100 μM for 30 minutes before stimulation with 100 ng/ml LPS. Supernatants were collected after 20 hours for determination of TNF-α levels. TNF-α levels were determined using a TNF-α specific ELISA (CAT # DY410 R&D Syst).
96 well plates were coated with 50 μl of Capture Antibody ([…]) in PBS and sealed and incubated overnight at 4° C. Plates were then washed three times in 0.05% PBS Tween and plates blotted. Plates were blocked by adding 150 μl of 1% BSA in PBS (Gibco—cat no. 14190-094) to each well and incubated at room temperature for 2 hours. Plates were washed again as previously described. 50 μl of sample or standard was added to each well and incubated for overnight at 4° C. Plates were then washed again as described. 50 μl of the detection Antibody (200 ng/ml) in 1% BSA in PBS was added to each well and incubated for 2 hours at room temperature. Plates were then washed again as described. 50 μl of working concentration of Streptavidin—HRP was added to each well and plates were covered and incubated for 20 minutes at room temperature. 50 μl of substrate solution (One OPD tablet and one urea hydrogen peroxide/buffer tablet were dissolved in 20 ml of water to yield a ready to use buffered solution, Sigma—cat no. 9187-50) was added to each well and incubated for 20 minutes at room temperature. 25 μl of 2N H2SO4 was added to each well to stop the reaction. The optical density of each well was then measured with a spectrophotometer at 450 nm.
Initially the panel of 25 novel potential tautomerase inhibitors was screened in an in-vitro system. In order to do this we exploited the fact that MIF is needed for optimal LPS induced TNF-α production. We therefore reasoned that our potential TIs should be able to inhibit LPS induced TNF-α in RAW macrophage murine cells. RAW macrophage murine cells were plated at 37° C. in a humidified 5% CO2 incubator. 16 hours later the cells were pre-treated with each of the inhibitors at concentration of 100, 50 or 10 μM for 30 minutes 100 ng/ml of LPS was then added to the cells and supernatants were collected after 16 hours and analysed for TNF-α production by ELISA.

[2] = system: Lewis Lung carcinoma cells (LLC); experiment: LLC-GLuc proliferation assay with rMIF; format: cell-based, mouse; conditions: 100 μM inhibitor, 100 ng/ml rMIF, 48 hours (FIG. 5)
Experimental: LLC-GLuc cells were plated in a 6 well plate at a density of 5×10^4 cells/ml in DMEM supplemented with P/S, 10% FCS and L-Glu. After overnight adherence, 100 ng/ml MIF was added along with the inhibitors or DMSO to a total of 1 ml serum free medium. Cells were harvested after 48 hours by trypsinisation and counted in a haemocytometer.
The ability of candidate compounds to reduce cellular proliferation was also examined. For this assay, LLC cells were plated at a cell density of 5×10^4 cells/ml. The cells were then pre-treated with TI 19 or ISO-1 at a concentration of 100 μM. The cells were then treated with 100 ng/ml of recombinant MIF. The cells were incubated at 37° C. in a humidified 5% CO2 incubator and after 48 hours the cells were harvested and counted.

SMILES: Cc1ccccc1-c1cc2ccccc2c(=O)o1 [TI 19]
- reduction of TNF-α production, in words ([1]; 10 μM inhibitor (FIG. 2C)): more effective than ISO-1
- reduction of TNF-α production, in words ([1]; 50 μM inhibitor (FIG. 2B)): more effective than the commercial standard ISO-1
- reduction of TNF-α production, in words ([1]; concentration not given): more effective at reducing TNF-α than the commercially available ISO-1; also recorded: reduction in TNF-α production
- reduction of MIF induced proliferation, in words [2]: inhibited significantly; also recorded: reduced proliferation to levels comparable with untreated cells; also recorded: reduced cell proliferation
